Test systems include MCF7; NCI-H522; SK-MEL-28; SR; TK-10; SW-620; SN12C; PC-3; A549; K562; KM12; M14; SF-295; HCC 2998; MDA-MB-231; ACHN; UO-31; SK-OV-3; UACC-257; MDA-MB-435.
Common to all, as to experiment: inhibition of tumour cell growth, NCI panel, 48 h

Each structure is given as a SMILES string.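 Values below derive from 48-hour exposures of cells grown in 96-well plates, with endpoints linearly interpolated between the two concentrations bracketing the appropriate inhibition level. At the GI50, growth is halved.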 The source made the active and inactive calls. No stated cut-off is given here; in the data, active = GI50 up to about 1.1 µM and inactive = higher.

For `NC(=O)CN1CC(C2=C(O)CN(CC(N)=O)C2=O)=CC1=O`, the GI50 in the test with MCF7, with NCI-H522, with SK-MEL-28, in the test on SR, with TK-10 and with SW-620 was > 100 µM (inactive) throughout. The GI50 in the test on SN12C, in the test on PC-3, in the test on A549, in the test on K562, in the test on KM12 and in the test with M14 was > 100 µM (inactive) each time. The GI50 with SF-295 is > 100 µM (inactive); in the test with HCC 2998 it was > 100 µM (inactive); in the test on MDA-MB-231, > 100 µM (inactive); in the test on ACHN, > 100 µM (inactive); with UO-31 it was 85.7 µM (inactive); in the test with SK-OV-3, > 100 µM (inactive). In addition, the GI50 with UACC-257 and in the test with MDA-MB-435 was > 100 µM (inactive) in each case.

As for `c1ccc(Cc2cccc3cc(-c4ccc(-c5ccccc5)cc4)[nH]c23)cc1`, the GI50 in the test on MCF7 is 97.1 µM (inactive); with NCI-H522 it was 17.2 µM (inactive); with SK-MEL-28, > 100 µM (inactive); with SR, 16.9 µM (inactive); in the test with TK-10 it was > 100 µM (inactive); in the test with SW-620, 92 µM (inactive). Moreover, the GI50 is 96.6 µM (inactive) in the test with SN12C; 61.9 µM (inactive) with PC-3; 76.7 µM (inactive) with A549; 86.9 µM (inactive) with KM12; 52.8 µM (inactive) in the test with M14; > 100 µM (inactive) with SF-295. The GI50 in the test on HCC 2998 is 95.1 µM (inactive); in the test on MDA-MB-231 it was 99.5 µM (inactive); in the test on ACHN, > 100 µM (inactive); in the test with UO-31 it was > 100 µM (inactive); in the test on SK-OV-3, > 100 µM (inactive); in the test with UACC-257 it was > 100 µM (inactive). Further, the GI50 with MDA-MB-435 is > 100 µM (inactive).

Regarding `Cc1cc(C)c2c(O)cc(-c3cccc(Cl)c3)nc2n1`, the GI50 with MCF7 is 0.208 µM (active); with NCI-H522 it was 0.0356 µM (active); with SK-MEL-28, 5.09 µM (inactive); with SR it was 0.0855 µM (active); in the test with TK-10 it was > 41.1 µM (inactive); with SW-620, 0.0578 µM (active). Further, the GI50 in the test on SN12C is 0.187 µM (active); in the test with PC-3, 0.0282 µM (active); in the test on A549 it was 0.227 µM (active); with K562, < 0.0199 µM (active); in the test on KM12, 0.0933 µM (active); with M14 it was 0.134 µM (active). Besides, the GI50 in the test with SF-295 is 0.0492 µM (active); in the test on HCC 2998, 0.403 µM (active); with MDA-MB-231 it was 0.256 µM (active); in the test with ACHN, 2.12 µM (inactive); with UO-31, 3.34 µM (inactive); in the test with SK-OV-3, 0.293 µM (active). In addition, the GI50 in the test on UACC-257 was 1.95 µM (inactive); in the test on MDA-MB-435, 0.0115 µM (active).

As for `CCc1cc2c(oc3cc(C)ccc32)c(=O)n1C`, the GI50 in the test with MCF7, in the test on NCI-H522, in the test on SR, in the test on TK-10, in the test with SW-620 and with SN12C was > 10 µM (inactive) throughout. Besides, the GI50 in the test on PC-3, with A549, in the test with K562, in the test on KM12, in the test on M14 and in the test on SF-295 was > 10 µM (inactive) each time. The GI50 in the test on HCC 2998, in the test with MDA-MB-231, in the test on ACHN, with UO-31, with SK-OV-3 and in the test on UACC-257 was > 10 µM (inactive) throughout. Further, the GI50 with MDA-MB-435 is > 10 µM (inactive).

`O=C(CSC1=NC(=O)C2(NN1)c1ccccc1-c1ccccc12)NC(=S)Nc1ccccc1`: the GI50 with MCF7 was 4.27 µM (inactive); with NCI-H522 it was 7.03 µM (inactive); with SK-MEL-28, > 10 µM (inactive); in the test with SR, 6.03 µM (inactive); with TK-10 it was > 10 µM (inactive); with SW-620, > 10 µM (inactive). Further, the GI50 in the test on SN12C, in the test on PC-3, in the test with A549, in the test on K562, with KM12 and with M14 was > 10 µM (inactive) each time. Besides, the GI50 in the test on SF-295 was > 10 µM (inactive); in the test on HCC 2998, > 10 µM (inactive); with MDA-MB-231, > 10 µM (inactive); in the test on ACHN, 1.81 µM (inactive); in the test on UO-31, 4.7 µM (inactive); with SK-OV-3, > 10 µM (inactive). The GI50 in the test on UACC-257 and with MDA-MB-435 was > 10 µM (inactive) in each case.

As to `CC(C)CC1C(=O)NCCC(NC(=O)C(N)Cc2ccc(O)cc2)C(=O)NC(Cc2ccccc2)C(=O)NC(Cc2ccccc2)NC1=O` (stereo unspecified), the GI50 with MCF7, in the test with NCI-H522, with SK-MEL-28, in the test with SR, with TK-10 and in the test on SW-620 was > 100 µM (inactive) each time. Also, the GI50 with SN12C, in the test with PC-3, with A549, in the test with K562, with KM12 and in the test on M14 was > 100 µM (inactive) throughout. The GI50 with SF-295, in the test on HCC 2998, in the test on MDA-MB-231, in the test with ACHN, with UO-31 and with SK-OV-3 was > 100 µM (inactive) each time. Moreover, the GI50 with UACC-257 and in the test with MDA-MB-435 was > 100 µM (inactive) each time.

Turning to `Cc1c(C(=O)c2ccc(N)c3ccccc23)c2ccccc2n1CCN1CCOCC1`, the GI50 in the test with MCF7 was 21.2 µM (inactive); in the test with NCI-H522, 6.82 µM (inactive); with SK-MEL-28, 43.5 µM (inactive); with SR it was > 32.8 µM (inactive); with TK-10, 31 µM (inactive); in the test with SW-620, 26.1 µM (inactive). Besides, the GI50 was 33.8 µM (inactive) with SN12C; 27.5 µM (inactive) in the test on PC-3; 13.1 µM (inactive) in the test with A549; 25.5 µM (inactive) with K562; 3.38 µM (inactive) in the test with KM12; 24.5 µM (inactive) in the test on M14. The GI50 is 3.15 µM (inactive) in the test on SF-295; 21.1 µM (inactive) in the test on HCC 2998; 12.6 µM (inactive) with MDA-MB-231; 31.4 µM (inactive) in the test with ACHN; 25.5 µM (inactive) in the test with UO-31; 1.97 µM (inactive) in the test on SK-OV-3. Also, the GI50 in the test on UACC-257 is 17.3 µM (inactive); in the test on MDA-MB-435, 2.02 µM (inactive).

As to `OC(c1cc2ccc(C(F)(F)F)cc2c2cc(C(F)(F)F)ccc12)C1CCCCN1` (stereo unspecified), the GI50 was 1.81 µM (inactive) in the test on MCF7; 1.7 µM (inactive) with NCI-H522; 1.91 µM (inactive) with SK-MEL-28; 2.38 µM (inactive) with SR; 1.73 µM (inactive) with TK-10; 1.49 µM (inactive) in the test with SW-620. Moreover, the GI50 with SN12C is 1.74 µM (inactive); with PC-3 it was 1.58 µM (inactive); in the test on A549, 1.8 µM (inactive); in the test on K562, 1.55 µM (inactive); with KM12, 2.07 µM (inactive); with M14, 1.88 µM (inactive). Besides, the GI50 with HCC 2998 is 1.3 µM (inactive); with MDA-MB-231, 1.73 µM (inactive); with ACHN, 1.33 µM (inactive); in the test with UO-31 it was 1.41 µM (inactive); with SK-OV-3, 2.36 µM (inactive); in the test with UACC-257 it was 1.56 µM (inactive). Also, in the test with MDA-MB-435, the GI50 is 1.48 µM (inactive).

As to `O=CC(NC(=O)N(CCCl)N=O)C(O)C(O)C(O)CO` (stereo unspecified), the GI50 in the test on MCF7 was 948 µM (inactive); with NCI-H522, 1160 µM (inactive); in the test with SK-MEL-28 it was 817 µM (inactive); in the test on SR it was 78.7 µM (inactive); with TK-10, > 1250 µM (inactive); with SW-620, 832 µM (inactive). Besides, the GI50 in the test on SN12C was 902 µM (inactive); in the test on PC-3 it was > 1250 µM (inactive); in the test with A549, 753 µM (inactive); in the test with K562 it was 575 µM (inactive); with KM12, > 1250 µM (inactive); with M14, 748 µM (inactive). Also, the GI50 with SF-295 was 81.7 µM (inactive); in the test on HCC 2998, > 1030 µM (inactive); in the test on MDA-MB-231 it was > 1100 µM (inactive); in the test with ACHN, 346 µM (inactive); in the test with UO-31, > 1200 µM (inactive); in the test on SK-OV-3 it was > 1160 µM (inactive). For the same compound, the GI50 in the test on UACC-257 is 1050 µM (inactive); with MDA-MB-435 it was 774 µM (inactive).

Turning to `O=C(CN1C(=O)c2ccccc2C1=O)C(O)CN1C(=O)c2ccccc2C1=O` (stereo unspecified), the GI50 in the test with MCF7 was > 100 µM (inactive); in the test on NCI-H522, > 100 µM (inactive); in the test with SK-MEL-28, > 100 µM (inactive); in the test on SR, > 100 µM (inactive); in the test on TK-10 it was 46.1 µM (inactive); in the test on SW-620, > 100 µM (inactive). The GI50 in the test with SN12C is 53.5 µM (inactive); in the test with PC-3, > 100 µM (inactive); in the test with A549, > 100 µM (inactive); in the test with KM12, 84.1 µM (inactive); in the test on M14 it was > 100 µM (inactive); with SF-295 it was 31.3 µM (inactive). Also, the GI50 was > 100 µM (inactive) with HCC 2998; 22.5 µM (inactive) with MDA-MB-231; 20 µM (inactive) in the test with ACHN; 73.3 µM (inactive) in the test on UO-31; 27.9 µM (inactive) with SK-OV-3; > 100 µM (inactive) with UACC-257. The GI50 with MDA-MB-435 was 34.1 µM (inactive).

The record behind these values is ChEMBL document CHEMBL1201862, “PubChem BioAssay data set” (2004).
